Laboratory results reported in the supplement of paper PMC12613149.

Experiments:
[1] = collision cross section (TIMS, N2 drift gas) of the primary ion; higher = larger gas-phase ion size
[2] = reversed-phase LC retention time (C18, 15 min MeOH gradient); higher = more hydrophobic / later elution
[3] = ionization mode: ESI+, ion species: [M+H]+
[4] = ionization mode: ESI-, ion species: [M-H]-

SMILES | collision cross section [1, 3] [Å²] | reversed-phase LC retention time [2, 3] [min] | collision cross section [1, 4] [Å²] | reversed-phase LC retention time [2, 4] [min]
CC(C)NCC(O)c1ccc(NS(C)(=O)=O)cc1 (stereo unspecified) [Sotalol] | 166.72 | 5.7 | 170.22 | 7.58
Oc1c(Cl)c(Cl)c(Cl)c(Cl)c1Cl [Pentachlorophenol] | – | – | 137.44 | 13.8
CCC(C)(C)c1cc(-n2nc3ccccc3n2)c(O)c(C(C)(C)CC)c1 [UV-328] | 196.56 | 20.1 | – | –
C=C(C)C(=O)NCCCN(C)C [N-(3-Dimethylamino)propyl)methacrylamide] | 136.2 | 3.22 | – | –
CC(C)C1CCC(Cc2ccc(Cl)cc2)C1(O)Cn1cncn1 (stereo unspecified) [Ipconazole] | 174.42 | 16.4 | – | –
CC(C)N(C(=O)COc1nnc(C(F)(F)F)s1)c1ccc(F)cc1 [Flufenacet] | 178.11 | 14.9 | – | –
O=P(Oc1ccccc1)(Oc1ccccc1)Oc1ccccc1 [Triphenylphosphate] | 172.48 | 15.7 | – | –
O=S(=O)(c1ccc(O)cc1)c1ccc(O)cc1 [Bisphenol S] | 155.2 | 9.38 | 154.29 | 7.15
CNC(=O)c1cc(Cl)cc(C)c1NC(=O)c1cc(Br)nn1-c1ncccc1Cl [Chlorantraniliprole] | 199.14 | 13.5 | 197.51 | 13.8
O=[N+]([O-])/N=C1\NCCN1Cc1ccc(Cl)nc1 [Imidacloprid] | 155.98 | 8.67 | 157.08 | 8.7
C[C@]12CC[C@@H]3c4ccc(O)cc4CC[C@H]3[C@@H]1C[C@@H](O)[C@@H]2O [Estriol] | – | – | 176.65 | 11.4
NC1=NCCN1Cc1ccc(Cl)nc1 [Imidacloprid-guanidine] | 148.89 | 6.21 | – | –
C/N=C(/NCC1CCOC1)N[N+](=O)[O-] (stereo unspecified) [Dinotefuran] | 141.96 | 6.27 | 146.7 | 6.46
O=P1(N(CCCl)CCCl)NCCCO1 (stereo unspecified) [Cyclophosphamide] | 147.43 | 10.5 | – | –
Oc1ccc2c(c1)C13CCCCC1(O)C(C2)N(CC1CCC1)CC3 (stereo unspecified) [Butorphanol] | – | – | 188.37 | 16.6
Nc1nnc(-c2cccc(Cl)c2Cl)c(N)n1 [Lamotrigine] | 153.91 | 9.33 | – | –
COC(=O)CCc1cc(C(C)(C)C)c(O)c(C(C)(C)C)c1 [Methyl 3-(3,5-di-tert-butyl-4-hydroxyphenyl)propionate] | – | – | 179.88 | 17.3
CCCCCCCCCCCC(=O)NCCO [N-Lauroylethanolamine] | 175.51 | 16.4 | – | –
CC(C)(C)CC(C)(C)c1ccc(O)cc1 [4-tert-Octylphenol] | – | – | 156.39 | 17.3
CC(C)N(C(=O)CCl)c1ccccc1 [Propachlor] | 143.81 | 13 | – | –

SMILES | collision cross section [1, 3] [Å²] | reversed-phase LC retention time [2, 3] [min] | collision cross section [1, 4] [Å²] | reversed-phase LC retention time [2, 4] [min]
O=C(O)CCCCCCCC(=O)O [Azelaic acid] | – | – | 138.44 | 0.98
O=C1Nc2ccc(Cl)cc2C(C#CC2CC2)(C(F)(F)F)O1 (stereo unspecified) [Efavirenz] | 168.93 | 15.4 | 167.59 | 15.8
CC1COc2c(N3CCN(C)CC3)c(F)cc3c(=O)c(C(=O)O)cn1c23 (stereo unspecified) [Ofloxacin] | 182.54 | 7.93 | – | –
C[C@]12C=CC(=O)C=C1CC[C@@H]1[C@@H]2C(=O)C[C@@]2(C)[C@H]1CC[C@]2(O)C(=O)CO [Prednisone] | 185.97 | 11.9 | 184 | 15.2
CCCC1CC(C(=O)NC(C(C)Cl)C2OC(SC)C(O)C(O)C2O)N(C)C1 (stereo unspecified) [Clindamycin] | 203.51 | 11.5 | 200.27 | 16.1
COc1ccc2nc(SCc3ncc(C)c(OC)c3C)[nH]c2c1 [Omeprazole sulfide] | 179.62 | 11.2 | 181.72 | 13.9
O=C(O)C(F)(F)C(F)(F)C(F)(F)C(F)(F)C(F)(F)F [Perfluorohexanoic acid] | – | – | 138.14 | 12.6
C[C@H](CCC(=O)O)[C@H]1CC[C@H]2[C@@H]3[C@H](O)C[C@@H]4C[C@H](O)CC[C@]4(C)[C@H]3CC[C@]12C [Chenodeoxycholic acid] | – | – | 209.87 | 15.6
O=C(O)c1ccc(Cl)cc1Cl [2,4-Dichlorobenzoic acid] | – | – | 124.87 | 6.78
C[C@]12CC[C@H]3[C@@H](CCC4=CC(=O)CC[C@@]43C)[C@@H]1CC[C@@H]2O [Testosterone] | 172.76 | 14.2 | – | –
CCC(=O)OCC(=O)[C@@]1(OC(=O)CC)[C@@H](C)C[C@H]2[C@@H]3CCC4=CC(=O)C=C[C@]4(C)[C@@]3(Cl)[C@@H](O)C[C@@]21C [Beclometasone dipropionate] | – | – | 223.83 | 16.5
COc1ccc2c3c1O[C@H]1C[C@@H](O)C=C[C@@]31CCN(C)C2 [Galantamine] | 169.25 | 5.92 | – | –
COc1cc(C2c3cc4c(cc3C(OC3OC5COC(C)OC5C(O)C3O)C3COC(=O)C23)OCO4)cc(OC)c1O (stereo unspecified) [Etoposide_2] | – | – | 241.7 | 11.7
CC(C)(C)C(O)C(Oc1ccc(-c2ccccc2)cc1)n1cncn1 (stereo unspecified) [Bitertanol] | 192.15 | 15.9 | – | –
CC[C@@H](C(=O)[C@@H](C)[C@@H](O)[C@H](C)[C@@H]1O[C@@H]([C@@H](CC)C(=O)O)CC[C@@H]1C)[C@H]1O[C@]2(C=C[C@@H](O)[C@]3(CC[C@@](C)([C@H]4CC[C@](O)(CC)[C@H](C)O4)O3)O2)[C@H](C)C[C@@H]1C [Salinomycin] | – | – | 263.17 | 18.5
CC(=O)O[C@]1(C(C)=O)CC[C@H]2[C@@H]3C=C(C)C4=CC(=O)CC[C@]4(C)[C@H]3CC[C@@]21C [Megestrol-17-acetate] | 198.3 | 15.2 | – | –
CCC(=O)[C@@]1(C)[C@H](C)C[C@H]2[C@@H]3CCC4=CC(=O)C=C[C@]4(C)[C@H]3[C@@H](O)C[C@@]21C [Rimexolone] | 192.28 | 16 | 191.62 | 16.4
CCN(CC)c1nc(C)cc(OP(=S)(OC)OC)n1 [Pirimiphos-methyl] | 167.52 | 15.7 | – | –
CCNS(=O)(=O)C(F)(F)C(F)(F)C(F)(F)C(F)(F)C(F)(F)C(F)(F)C(F)(F)C(F)(F)F [2-N-Ethylperfluorooctanesulfonamide] | – | – | 178.3 | 17.6

Results, then the compound that gave them:

collision cross section [1, 3] [Å²] | reversed-phase LC retention time [2, 3] [min] | collision cross section [1, 4] [Å²] | reversed-phase LC retention time [2, 4] [min] | SMILES
203.95 | 17.5 | – | – | Cc1nn(C)c(Oc2ccccc2)c1/C=N/OCc1ccc(C(=O)OC(C)(C)C)cc1 [Fenpyroximate]
198.29 | 15.7 | – | – | CC/C(=C(\c1ccccc1)c1ccc(OCCN(C)C)cc1)c1ccccc1 [Tamoxifen]
158.88 | 13.5 | – | – | CC(C(=O)O)c1cccc(C(=O)c2ccccc2)c1 (stereo unspecified) [Ketoprofen]
175.08 | 9.7 | 178.82 | 8.94 | Cc1cccc(C)c1N(Cn1cccn1)C(=O)CS(=O)CC(=O)O (stereo unspecified) [Metazachlor BH 479-9]
190.75 | 13 | 188.36 | 11.5 | CO/C=C(/C(=O)O)c1ccccc1Oc1cc(Oc2ccccc2C#N)ncn1 [Azoxystrobin acid]
243.08 | 17.7 | 244.69 | 17 | CC(C)(O)c1ccccc1CCC(SCC1(CC(=O)O)CC1)c1cccc(C=Cc2ccc3ccc(Cl)cc3n2)c1 (stereo unspecified) [Montelukast]
195.58 | 13.6 | – | – | CO/N=C(/C(=O)O)c1ccccc1CO/N=C(\C(=O)O)c1cccc(C(F)(F)F)c1
176.34 | 10.5 | – | – | CC(CCc1ccccc1)NCC(O)c1ccc(O)c(C(N)=O)c1 (stereo unspecified) [Labetalol]
159.85 | 14 | – | – | CCNC(=O)C(C)Oc1cccc2ccccc12 (stereo unspecified) [Desethyl-napropamide]
– | – | 148.3 | 12.8 | CCCCNS(=O)(=O)c1ccccc1 [N-Butylbenzenesulfonamide]
– | – | 144.25 | 7.16 | O=S(=O)(O)c1cccc2ccc(O)cc12 [2-Naphthol-8-sulfonic acid]
138.79 | 8.08 | – | – | c1ccc2[nH]c(-c3cscn3)nc2c1 [Thiabendazole]
194.45 | 13.1 | – | – | CO/N=C(/C(=O)O)c1ccccc1CO/N=C(/C(=O)O)c1cccc(C(F)(F)F)c1
173.95 | 8.08 | – | – | CCn1cc(C(=O)O)c(=O)c2cc(F)c(N3CCNCC3)cc21 [Norfloxacin]
154.74 | 7.85 | – | – | CC(=O)Nc1c(C)n(C)n(-c2ccccc2)c1=O [N-Acetyl-4-aminoantipyrine]
214.28 | 15.8 | 218.21 | 16.2 | CNC(=O)c1cc(Oc2ccc(NC(=O)Nc3ccc(Cl)c(C(F)(F)F)c3)cc2)ccn1
202.99 | 11.9 | – | – | CCN(CCCCOC(=O)c1ccc(OC)c(OC)c1)C(C)Cc1ccc(OC)cc1 (stereo unspecified) [Mebeverine]
157.4 | 10.4 | – | – | NC(=O)N1c2ccccc2C(O)C(O)c2ccccc21 (stereo unspecified) [10,11-Dihydro-10,11-dihydroxycarbamazepine]
138.2 | 8.8 | – | – | Cc1cc(=O)n(-c2ccccc2)n1C [Phenazone]
164.14 | 12.9 | – | – | CNCCCN1c2ccccc2CCc2ccccc21 [Desipramine]
